The record followed here is US5041451A, “Tetrahydroisoquinoline and tetrahydrothieno derivatives” (Dr. Lo. Zambelletti SpA, priority 1988, dated 1991).

In general, ED50 refers to the dose that gives a 50% effect, or the effect in half of the subjects.

Assay [1] deals with mice (tail-flick, heat source reaction time). The assay can be described thus: Mouse tail-flick test. It counts as in vivo, mouse (male Charles River). The following applies: sc, 0.5 h, s.c., 30 min after dosing, percent number of mice doubling the initial time, data given for free base form, read-out: ANALGESIA MOUSE TAIL-FLICK ED50. The method, then: Mouse Tail-flick test (Modified from the procedure published by D Amour et al., J. Pharm. Exptl. Ther.72, 74/1941).
Male Charles River mice, average weight 26g, are used. Selection is carried out before beginning of experiments: only mice whose reaction time is less than 8 sec are used. They are randomly distributed into groups of 10 and dosed with compounds under test, with positive and negative controls being included.
Compounds under test are administered subcutaneously in isotonic saline in a volume of 20 ml. Kg^-1. 30 min later mice are placed again under heat source (Socrel apparatus) and reaction time is recorded.
The analgesic activity of the test compound is expressed as the percent number of mice doubling the initial time within a group. [formula]
For orientation: Thermal pain tests record how soon the animal reacts.

Assay [2] relates to mice (p-phenylquinone-induced abdominal writhing). The assay is described as follows: P-phenylquinone-induced abdominal writhing test in mice. Type of assay: in vivo, mouse (male Charles River, Swiss Strain). The conditions noted are these: Mus musculus, sc, 20 min; s.c., 20 min pretreatment; p-phenylquinone 2 mg/Kg i.p.; 8 min observation; data given for free base form; read-out: ANALGESIA MOUSE WRITHING ED50. Here is the method: P-phenylquinone-induced Abdominal Writhinq Test in Mice
The methodology employed is based on that described by Sigmund et al, Proc. Soc. Exptl. Biol. 95, 729/1957, modified by Milne and Twomey, Agents and Actions, 10, 31/1980.
Male Charles River mice (Swiss Strain), 25-36 g body weight, are used. Animals are allowed food and water ad libitum and are randomized into groups of 10 prior to experimentation. Test compounds are dissolved in either distilled water or distilled water plus 0.1 M AMS, and administered by the subcutaneous route in a final volume of 10 ml/Kg. Control animals receive 10 ml/Kg of the appropriate vehicle alone. Following a pretreatment period of 20 min., mice are injected intraperitoneally with p-phenylquinone, 2 mg/Kg at 37° C. in a final volume of 10 mg/Kg. Next, the mice are placed, in a groups of 3, in a compartmented perspex box maintained at room temperature and are observed for a period of 8 min. During this period the number of abdominal writhing responses per animal are recorded where writhing consists of an intermittent contraction of the abdomen associated with hind leg extension.
The degree of antinociceptive protection afforded by the test compound is determined as the mean number of writhing responses observed in the treated group (T) expressed as a percentage of the mean number of writhing responses in the control group (C) according to the following formula:
[1-(T/C)]×100%=% graded protection.
(In general: Writhing tests count abdominal constrictions after an irritant is injected.)

Where a name gives a salt, the structure may show the parent alone.

On to `O=C1CCCc2cc(CC(=O)N3CCc4sccc4C3CN3CCCCC3)ccc21` (single isomer, unassigned) [Example 5, (-)4-(piperidin-1-yl)methyl-5-(1-oxo-3,4-dihydro-(2H)-napht-6-yl)acetyl-4,5,6,7-tetrahydrothieno [3,2-c]pyridine L(+) tartrate], for which the results for the ED50 in assay [1] and in assay [2] were 0.045 mg/kg and 0.009 mg/kg, respectively.

As to `O=C1CCCc2cc(CC(=O)N3CCc4ccccc4C3CN3CCCC3)ccc21` (stereo not shown) [Example 1, 1-(pyrrolidin-1-yl)methyl-2-(1-oxo-3,4-dihydro-(2H)-napht-6-Yl)acetyl-1,2,3,4-tetrahydroisoquinoline hydrochloride], the ED50 in assay [1] amounted to 0.114 mg/kg; in assay [2], 0.036 mg/kg.

For the compound `O=C1CCCc2cc(CC(=O)N3CCc4ccccc4C3CN3CCCCC3)ccc21` (stereo not shown) [Example 2, 1-(piperidin-1-yl)methyl-2-(1-oxo-3,4-dihydro-(2H)-napht-6-yl)acetyl-1,2,3,4-tetrahydroisoquinoline hydrochloride], the ED50 in assay [1] was 0.206 mg/kg; in assay [2] it was 0.038 mg/kg.

As for `O=C1CCCc2cc(CC(=O)N3CCc4sccc4C3CN3CCCC3)ccc21` (stereo not shown) [Example 3, 4-(pyrrolidin-1-yl)methyl-5-(1-oxo-3,4-dihydro-(2H)-napht-6-yl)acetyl-4,5,6,7-tetrahydrothieno [3,2-c] pyridine hydrochloride], the results for the ED50 in assay [1] and in assay [2] were 0.086 mg/kg and 0.023 mg/kg, respectively.

As to `O=C1CCCc2cc(CC(=O)N3CCc4sccc4C3CN3CCCCC3)ccc21` (stereo not shown) [Example 4, 4-(piperidin-1-yl)methyl-5-(1-oxo-3,4-dihydro-(2H)-napht-6-Yl)acetyl-4,5,6,7-tetrahydrothieno [3,2-c]pyridine hydrochloride hemihydrate], the 50% effective dose (ED50) in assay [1] stood at 0.174 mg/kg; in assay [2] it was 0.017 mg/kg.
